Measurements as given in PMC4212090, “The comprehensive analysis of DEG/ENaC subunits in Hydra reveals a large variety of peptide-gated channels, potentially involved in neuromuscular transmission” (BMC Biology, 2014).

What was measured:
HyNaC2/10/7 = HyNaC2/10/7 (Hydra vulgaris (Hydra magnipapillata), UniProt A0A0A0MP61+A0A0A0MP73+A8DZR6); experiment: Inhibition of HyNaC2/10/7 currents in Xenopus oocytes (TEVC); assay type: cell-based; settings: HyNaC2/10/7
Experimental: (§1) One of the hallmarks of DEG/ENaCs is the block by the diuretic amiloride.
(§2) Figure 10 Diminazene is a potent inhibitor of HyNaCs. A) Current trace illustrating the concentration-dependent inhibition of HyNaC2/9/7 by diminazene. Block by 100 μM amiloride was used to compare the affinity for diminazene and amiloride. […] Dashed lines represent the zero current level. B) Concentration-response curves showing the concentration-dependent inhibition of HyNaCs by diminazene. HyNaCs, Hydra Na^+ channels.
(§3) To study the biophysical properties of the new HyNaCs, cRNA of HyNaCs was synthesized in vitro (mMessage mMachine kit, Ambion, Austin, Texas, USA) and injected into Xenopus laevis oocytes of stage V and VI. […] Whole cell currents were recorded from defolliculated oocytes by two-electrode voltage-clamp (TEVC) using the amplifier TurboTec 03X (npi electronic GmbH, Tamm, Germany). […]
(§4) EC50 values for Hydra-RFamides I and II as well as IC50 values for diminazene were determined by fits to the Hill equation using IGOR Pro (version 6.06, WaveMetrics, Inc.). Reversal potentials were defined as the first recorded data point, where currents reversed signs from negative to positive. […]

HyNaC2/3/5 = HyNaC2/3/5 (Hydra vulgaris (Hydra magnipapillata), UniProt A8DZR6+A8DZR7+D3UD58); experiment: Inhibition of HyNaC2/3/5 currents in Xenopus oocytes (TEVC); assay type: cell-based; settings: HyNaC2/3/5
Experimental: as §1, §2, §3, §4

HyNaC2/11/5 = HyNaC2/11/5 (Hydra vulgaris (Hydra magnipapillata), UniProt A0A0A0MP55+A8DZR6+D3UD58); experiment: Inhibition of HyNaC2/11/5 currents in Xenopus oocytes (TEVC); assay type: cell-based; settings: HyNaC2/11/5
Experimental: as §1, §2, §3, §4

HyNaC2/3/6 = HyNaC2/3/6 (Hydra vulgaris (Hydra magnipapillata), UniProt A0A0A0MP54+A8DZR6+A8DZR7); experiment: Inhibition of HyNaC2/3/6 currents in Xenopus oocytes (TEVC); assay type: cell-based; settings: HyNaC2/3/6
Experimental: as §1, §2, §3, §4

HyNaC2/3/7 = HyNaC2/3/7 (Hydra vulgaris (Hydra magnipapillata), UniProt A0A0A0MP73+A8DZR6+A8DZR7); experiment: Inhibition of HyNaC2/3/7 currents in Xenopus oocytes (TEVC); assay type: cell-based; settings: HyNaC2/3/7
Experimental: as §1, §2, §3, §4

HyNaC2/9/7 = HyNaC2/9/7 (Hydra vulgaris (Hydra magnipapillata), UniProt A0A0A0MP48+A0A0A0MP73+A8DZR6); experiment: Inhibition of HyNaC2/9/7 currents in Xenopus oocytes (TEVC); assay type: cell-based; settings: HyNaC2/9/7
Experimental: as §1, §2, §3, §4

Hydra magnipapillata = experiment: Feeding reaction (tentacle curling induced by glutathione) of living Hydra; assay type: in vivo; settings: 10 μM GSH
Experimental: To find further evidence that amiloride inhibited the feeding reaction via inhibition of HyNaCs, we repeated these experiments with diminazene. Addition of glutathione (GSH; 10 μM final concentration) induced tentacle contractions and animals moved the tentacles to their mouth. After about two minutes, 100% of animals had their tentacles completely curled. […] Although the potency of diminazene in vivo was low, it should be taken into account that septate junctions provide a significant paracellular permeability barrier to the mesogleal space of Hydra. Moreover, it appears that diminazene requires active transport mechanisms for cellular uptake, probably strongly limiting its transcellular transport; amiloride in contrast is, in part, uncharged at neutral pH and has a significant membrane permeability.
Figure 11 Diminazene inhibits the feeding reaction of Hydra magnipapillata . Adult animals were held in plain medium or in medium containing 100, 200 or 300 μM diminazene (Dimi). The feeding response was induced by application of 10 μM glutathione (GSH). The number of animals showing complete tentacle curling was recorded every 30 seconds. *, P <0.05; **, P <0.01; ***, P <0.001.

HyNaCs = experiment: Block of HyNaC currents (HyNaCs in general) in Xenopus oocytes; assay type: cell-based, Hydra magnipapillata; settings: most HyNaCs
Experimental: as §1, §2
To study the biophysical properties of the new HyNaCs, cRNA of HyNaCs was synthesized in vitro (mMessage mMachine kit, Ambion, Austin, Texas, USA) and injected into Xenopus laevis oocytes of stage V and VI. After injection, oocytes were incubated for one to two days at 19°C in oocyte Ringer’s solution 2 (OR-2), which contained (in mM): 82.5 NaCl, 2.5 KCl, 1.0 Na2HPO4, 1.0 MgCl2, 1.0 CaCl2, 5.0 HEPES, 0.5 g/l PVP, 1,000 U/l penicillin and 10 mg/l streptomycin, NaOH was used to adjust pH to 7.3. Whole cell currents were recorded from defolliculated oocytes by two-electrode voltage-clamp (TEVC) using the amplifier TurboTec 03X (npi electronic GmbH, Tamm, Germany). […]

HyNaC2/4/6 = HyNaC2/4/6 (Hydra vulgaris (Hydra magnipapillata), UniProt A0A0A0MP54+A8DZR6+A8DZR8); experiment: Inhibition of HyNaC2/4/6 currents in Xenopus oocytes (TEVC); assay type: cell-based; settings: HyNaC2/4/6
Experimental: as §1, §2, §3, §4

[1] = test system: functional HyNaC heterotrimer; experiment: Screen of functional HyNaC heterotrimers in Xenopus oocytes for activation by Hydra-RFamides; assay type: cell-based, Hydra magnipapillata; settings: 5 μM peptide; Xenopus oocytes
Experimental: We tested the function of the new HyNaCs by co-expression of different HyNaC subunit combinations in Xenopus oocytes. We screened for functional subunit combinations by application of 5 μM Hydra-RFamide I, a potent agonist of HyNaC2/3/5 [4]. When we expressed an individual HyNaC subunit we could never elicit currents. […] When HyNaC2 was part of the injected cRNA pool, however, Hydra-RFamide I elicited currents. Simultaneous expression of HyNaC2 with a single other HyNaC resulted only in a functional channel when we co-expressed HyNaC2 and HyNaC3; it was already known that HyNaC2 and HyNaC3 form a low-affinity peptide-gated channel.
Dashed line represents the zero current level. Amino acid sequences of Hydra-RFamides I to V are shown at the bottom. HyNaC, Hydra Na^+ channel.
Since Hydra-RFamide II had been shown previously to activate HyNaC2/3/5 [4], we tested Hydra-RFamides II to V for channel activation.
To study the biophysical properties of the new HyNaCs, cRNA of HyNaCs was synthesized in vitro (mMessage mMachine kit, Ambion, Austin, Texas, USA) and injected into Xenopus laevis oocytes of stage V and VI. After injection, oocytes were incubated for one to two days at 19°C in oocyte Ringer’s solution 2 (OR-2), which contained (in mM): 82.5 NaCl, 2.5 KCl, 1.0 Na2HPO4, 1.0 MgCl2, 1.0 CaCl2, 5.0 HEPES, 0.5 g/l PVP, 1,000 U/l penicillin and 10 mg/l streptomycin, NaOH was used to adjust pH to 7.3. Whole cell currents were recorded from defolliculated oocytes by two-electrode voltage-clamp (TEVC) using the amplifier TurboTec 03X (npi electronic GmbH, Tamm, Germany). Standard bath solution (in mM: 140 NaCl, 10 HEPES, 1.8 CaCl2 and 1.0 MgCl2. NaOH was used to adjust pH to 7.4.) was exchanged by a pump driven system combined with the oocyte testing carousel (OTC), which was controlled by the interface OTC-20 [53]. To control the OTC-20 and to record the data to the hard drive, the software CellWorks (version 5.1.1; npi electronic GmbH, Tamm, Germany) was used. Data were sampled at 0.1 to 1 kHz and filtered at 20 Hz. HyNaCs are permeable for Ca^2+, activating an endogenous CaCC [40]. Therefore, unless otherwise indicated, oocytes were injected with 50 nl of 20 mM EGTA 30 to 180 minutes before measurements. Reversal potentials and Ca^2+ permeabilities of HyNaCs were studied as described previously.

Chain of HyNaC2/3/6 (A0A0A0MP54 entry or part of it): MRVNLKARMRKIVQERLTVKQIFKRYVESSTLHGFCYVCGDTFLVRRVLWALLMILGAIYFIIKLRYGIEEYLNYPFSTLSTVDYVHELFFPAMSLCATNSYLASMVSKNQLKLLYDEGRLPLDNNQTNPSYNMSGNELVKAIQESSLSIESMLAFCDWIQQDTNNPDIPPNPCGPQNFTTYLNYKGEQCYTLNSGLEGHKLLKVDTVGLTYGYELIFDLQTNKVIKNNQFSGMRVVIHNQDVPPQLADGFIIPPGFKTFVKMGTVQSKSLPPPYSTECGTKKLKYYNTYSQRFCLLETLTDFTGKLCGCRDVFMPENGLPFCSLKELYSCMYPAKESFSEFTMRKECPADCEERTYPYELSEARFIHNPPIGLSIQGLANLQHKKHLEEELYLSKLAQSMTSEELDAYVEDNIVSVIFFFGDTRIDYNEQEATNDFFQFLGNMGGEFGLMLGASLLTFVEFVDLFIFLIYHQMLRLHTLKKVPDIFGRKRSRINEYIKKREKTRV
Chain of HyNaC2/3/6 (A8DZR7 entry or part of it): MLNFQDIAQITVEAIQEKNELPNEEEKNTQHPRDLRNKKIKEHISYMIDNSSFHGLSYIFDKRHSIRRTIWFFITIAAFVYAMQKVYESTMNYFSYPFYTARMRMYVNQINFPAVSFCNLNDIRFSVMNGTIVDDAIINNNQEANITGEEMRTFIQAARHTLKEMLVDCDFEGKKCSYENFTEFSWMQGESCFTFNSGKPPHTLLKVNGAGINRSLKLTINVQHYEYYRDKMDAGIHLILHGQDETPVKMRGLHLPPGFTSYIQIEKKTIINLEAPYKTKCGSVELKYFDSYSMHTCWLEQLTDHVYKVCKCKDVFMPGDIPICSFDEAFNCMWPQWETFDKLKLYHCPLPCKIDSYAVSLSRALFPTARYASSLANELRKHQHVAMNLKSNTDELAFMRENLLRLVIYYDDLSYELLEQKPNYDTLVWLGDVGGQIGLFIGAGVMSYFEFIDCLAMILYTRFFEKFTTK
Chain of HyNaC2/3/6 (A8DZR6 entry or part of it): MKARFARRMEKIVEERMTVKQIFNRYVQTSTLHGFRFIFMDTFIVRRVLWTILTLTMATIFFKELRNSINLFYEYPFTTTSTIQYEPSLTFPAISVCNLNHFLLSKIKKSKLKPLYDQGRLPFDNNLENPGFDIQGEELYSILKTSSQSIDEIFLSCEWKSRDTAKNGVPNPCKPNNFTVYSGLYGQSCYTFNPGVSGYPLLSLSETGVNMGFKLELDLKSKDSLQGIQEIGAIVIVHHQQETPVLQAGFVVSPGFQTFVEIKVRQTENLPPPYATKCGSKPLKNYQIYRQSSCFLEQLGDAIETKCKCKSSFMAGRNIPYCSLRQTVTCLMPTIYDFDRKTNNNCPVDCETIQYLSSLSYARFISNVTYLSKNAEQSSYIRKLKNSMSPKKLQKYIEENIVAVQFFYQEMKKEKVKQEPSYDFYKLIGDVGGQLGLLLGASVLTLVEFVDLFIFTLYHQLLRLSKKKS
Chain of HyNaC2/4/6 (A8DZR8 entry or part of it): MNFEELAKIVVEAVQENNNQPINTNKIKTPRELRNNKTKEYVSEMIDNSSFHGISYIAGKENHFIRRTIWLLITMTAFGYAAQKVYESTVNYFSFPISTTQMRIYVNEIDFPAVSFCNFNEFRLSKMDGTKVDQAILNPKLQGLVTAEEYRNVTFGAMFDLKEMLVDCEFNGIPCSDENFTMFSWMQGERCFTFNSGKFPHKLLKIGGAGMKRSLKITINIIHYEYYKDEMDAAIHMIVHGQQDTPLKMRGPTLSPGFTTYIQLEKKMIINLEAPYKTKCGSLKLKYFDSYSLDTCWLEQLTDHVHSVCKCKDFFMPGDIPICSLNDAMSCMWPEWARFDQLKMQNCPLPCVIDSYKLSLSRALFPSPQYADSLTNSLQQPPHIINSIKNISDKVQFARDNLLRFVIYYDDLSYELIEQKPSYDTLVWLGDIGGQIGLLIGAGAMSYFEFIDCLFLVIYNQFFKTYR
Chain of HyNaC2/4/6 (A0A0A0MP54 entry or part of it): as the sequence (A0A0A0MP54 entry or part of it) above
Chain of HyNaC2/4/6 (A8DZR6 entry or part of it): as the sequence (A8DZR6 entry or part of it) above
Chain of HyNaC2/3/7 (A8DZR7 entry or part of it): as the sequence (A8DZR7 entry or part of it) above
Chain of HyNaC2/3/7 (A0A0A0MP73 entry or part of it): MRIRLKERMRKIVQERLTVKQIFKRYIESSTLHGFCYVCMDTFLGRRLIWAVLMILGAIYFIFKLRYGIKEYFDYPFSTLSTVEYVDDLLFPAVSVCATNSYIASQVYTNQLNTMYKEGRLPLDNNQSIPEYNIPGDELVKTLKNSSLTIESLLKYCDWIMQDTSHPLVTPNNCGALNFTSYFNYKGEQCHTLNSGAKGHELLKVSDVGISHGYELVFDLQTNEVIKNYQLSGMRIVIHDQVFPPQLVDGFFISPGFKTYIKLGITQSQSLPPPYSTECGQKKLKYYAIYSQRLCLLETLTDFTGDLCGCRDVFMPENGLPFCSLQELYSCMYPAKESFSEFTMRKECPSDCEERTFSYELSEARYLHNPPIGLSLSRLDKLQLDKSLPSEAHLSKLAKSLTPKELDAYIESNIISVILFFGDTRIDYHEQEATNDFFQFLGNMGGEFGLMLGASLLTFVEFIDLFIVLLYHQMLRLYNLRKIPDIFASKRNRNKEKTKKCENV
Chain of HyNaC2/3/7 (A8DZR6 entry or part of it): as the sequence (A8DZR6 entry or part of it) above

Row | Molecule | IC50 (HyNaC2/10/7) [nM] | IC50 (HyNaC2/3/5) [nM] | IC50 (HyNaC2/11/5) [nM] | IC50 (HyNaC2/3/6) [nM] | IC50 (HyNaC2/3/7) [nM] | IC50 (HyNaC2/9/7) [nM] | tentacle curling (feeding reaction) (Hydra magnipapillata; 100 μM diminazene in medium) | initiation of tentacles movement (feeding reaction) (Hydra magnipapillata; 200 μM diminazene in medium) | feeding reaction (Hydra magnipapillata; 300 μM diminazene in medium) | animals with tentacles completely curled (Hydra magnipapillata; 300 μM diminazene in medium, after four minutes) [%] | block of HyNaC currents (HyNaCs; 10 μM diminazene) | potency relative to amiloride (HyNaCs; estimated) [fold] | IC50 (HyNaC2/4/6) [nM] | activation of functional HyNaC heterotrimers (current elicited) [1]
1 | N=C(N)c1ccc(/N=N/Nc2ccc(C(=N)N)cc2)cc1 [diminazene] | 5400 ± 1450 | 450 ± 90 | 31400 ± 9400 | 90 ± 20 | 160 ± 80 | 1700 ± 580 | slightly delayed | more strongly and significantly (P ≤0.01) delayed | strongly inhibited the feeding reaction | 20 | almost completely blocked | > 100 | 50 ± 20 | 
2 | Hydra-RFamide III |  |  |  |  |  |  |  |  |  |  |  |  |  | did not elicit a current
3 | Hydra-RFamide IV |  |  |  |  |  |  |  |  |  |  |  |  |  | did not elicit a current
